Data set [1] concerns HUVEC. The experiment in a line: Angiogenic activity in HUVEC assessed as increase in sprout length at 2 to 50 uM by microfluidic chip based 3D angiogenesis assay. In kind it is functional, cell-based. Conditions: Homo sapiens.
The target in data set [2] is Vascular endothelial growth factor receptor 2 (Homo sapiens, UniProt P35968). Conditions: 1 uM.
Description: Inhibition of human KDR at 1 uM using poly[Glu:Tyr] (4:1) as substrate in presence of [gamma-33P]-ATP by scintillation counting method relative to control
Data set [3] has as its target T1, TGF-beta receptor type-1 (Mus musculus, UniProt Q64729).
T1 sequence (Q64729 whole entry): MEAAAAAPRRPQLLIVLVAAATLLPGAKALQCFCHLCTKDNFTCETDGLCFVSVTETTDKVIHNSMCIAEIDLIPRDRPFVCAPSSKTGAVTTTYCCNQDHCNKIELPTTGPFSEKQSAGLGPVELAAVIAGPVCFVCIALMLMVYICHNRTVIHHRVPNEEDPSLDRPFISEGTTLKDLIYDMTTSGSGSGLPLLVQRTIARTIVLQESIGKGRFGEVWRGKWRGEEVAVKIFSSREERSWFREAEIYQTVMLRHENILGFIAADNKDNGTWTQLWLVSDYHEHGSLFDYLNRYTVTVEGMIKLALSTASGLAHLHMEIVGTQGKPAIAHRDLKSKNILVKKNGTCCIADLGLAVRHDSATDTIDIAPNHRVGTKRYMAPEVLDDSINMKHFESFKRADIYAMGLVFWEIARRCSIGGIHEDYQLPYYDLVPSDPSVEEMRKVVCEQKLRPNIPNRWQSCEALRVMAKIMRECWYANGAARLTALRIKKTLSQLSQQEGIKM
The experiment in a line: Inhibition of ALK5 in mouse C2C12 cells assessed as decrease in TGFbeta1-induced Smad2/3 phosphorylation at 0.1 to 10 uM by Western blot method. In kind it is cell-based.

A further data set relates to MDA-MB-231. The experiment in a line: Antiproliferative activity against human MDA-MB-231 cells up to 100 uM after 72 hrs by CellTiter 96 non-radioactive cell proliferation assay. Conditions: mda-mb-231, 72 h. The format is cell-based.
Data set [4] has as its target T2, Vascular endothelial growth factor receptor 3 (Homo sapiens, UniProt P35916). The note with it: 1 uM.
Description: Inhibition of human FLT4 at 1 uM using poly[Glu:Tyr] (4:1) as substrate in presence of [gamma-33P]-ATP by scintillation counting method relative to control
Data set [5] has as its target T3, Activin receptor type-1-like (Mus musculus) (UniProt Q61288).
T3 sequence (whole entry): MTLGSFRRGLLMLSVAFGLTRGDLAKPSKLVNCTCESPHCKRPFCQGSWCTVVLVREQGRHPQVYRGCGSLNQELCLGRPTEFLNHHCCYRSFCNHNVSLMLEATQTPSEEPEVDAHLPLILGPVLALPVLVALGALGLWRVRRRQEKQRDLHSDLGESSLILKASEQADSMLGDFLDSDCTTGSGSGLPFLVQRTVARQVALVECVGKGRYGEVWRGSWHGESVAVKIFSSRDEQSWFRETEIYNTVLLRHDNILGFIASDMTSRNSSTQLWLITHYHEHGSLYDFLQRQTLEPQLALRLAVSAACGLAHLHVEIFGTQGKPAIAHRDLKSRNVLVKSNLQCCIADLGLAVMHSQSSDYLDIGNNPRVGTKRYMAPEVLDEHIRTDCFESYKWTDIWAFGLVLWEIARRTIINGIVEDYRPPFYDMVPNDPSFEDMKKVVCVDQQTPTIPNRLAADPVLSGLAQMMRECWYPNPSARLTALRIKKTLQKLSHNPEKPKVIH
As to the kind of experiment: Inhibition of ALK1 in mouse C2C12 cells assessed as downregulation of BMP9-induced Id1 protein levels at 10 uM pretreated for 2 hrs followed by BMP9-stimulation after 30 mins by western blot analysis. The format is cell-based.

Data set [6] concerns HUVEC. The experiment in a line: Angiogenic activity in HUVEC assessed as increase in angiogenic sprouting in presence of recombinant human VEGF165 by microfluidic chip based 3D angiogenesis assay. In kind it is functional, cell-based.
The target of data set [7] is T3, Activin receptor type-1-like (Mus musculus). The experiment in a line: Inhibition of BMP9-stimulated ALK1 in mouse C2C12 cells assessed as reduction in Smad1/5 phosphorylation at 10 uM pretreated for 2 hrs followed by BMP9-stimulation after 30 mins by western blot analysis relative to control. In kind it is cell-based.
Data set [8] has as its target Bone morphogenetic protein receptor type-1B (Homo sapiens, UniProt O00238). The experiment in a line: Inhibition of human ALK6 using casein as substrate in presence of 10 uM ATP by radiometric kinase assay.
A further data set deals with Activin receptor type-1 (Homo sapiens, UniProt Q04771). As to the kind of experiment: Inhibition of human ALK2 using casein as substrate in presence of 200 uM ATP by radiometric kinase assay.
Chain of Activin receptor type-1 (Q04771 whole entry): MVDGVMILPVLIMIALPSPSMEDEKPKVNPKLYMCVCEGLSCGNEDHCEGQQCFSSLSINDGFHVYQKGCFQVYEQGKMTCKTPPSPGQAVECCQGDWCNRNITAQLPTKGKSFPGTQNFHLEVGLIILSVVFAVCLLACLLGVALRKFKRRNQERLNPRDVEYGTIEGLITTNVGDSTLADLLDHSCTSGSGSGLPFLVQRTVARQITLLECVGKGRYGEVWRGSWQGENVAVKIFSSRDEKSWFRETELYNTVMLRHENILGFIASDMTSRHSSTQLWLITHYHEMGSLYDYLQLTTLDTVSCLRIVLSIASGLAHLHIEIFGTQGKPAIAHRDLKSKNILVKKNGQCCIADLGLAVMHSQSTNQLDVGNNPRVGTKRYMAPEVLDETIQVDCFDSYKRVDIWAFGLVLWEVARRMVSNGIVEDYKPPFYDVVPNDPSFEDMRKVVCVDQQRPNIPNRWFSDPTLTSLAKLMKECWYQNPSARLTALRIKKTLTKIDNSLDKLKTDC
The target in data set [9] is T3, Activin receptor type-1-like (Mus musculus). The experiment in a line: Inhibition of ALK1 in mouse C2C12 cells assessed as downregulation of BMP9-induced Id1 mRNA levels at 10 uM pretreated for 2 hrs followed by BMP9-stimulation after 30 mins by RT-PCR analysis. In kind it is cell-based.
Data set [10] has as its target TGF-beta receptor type-1 (Homo sapiens, UniProt P36897). The experiment in a line: Inhibition of human ALK5 using casein as substrate in presence of 10 uM ATP by radiometric kinase assay.
The target in data set [11] is T2, Vascular endothelial growth factor receptor 3. As to the kind of experiment: Inhibition of human FLT4 using poly[Glu:Tyr] (4:1) as substrate in presence of [gamma-33P]-ATP by scintillation counting method.
For data set [12], the target named is ALK6 (bone morphogenetic protein receptor type-1B) (Homo sapiens, UniProt O00238). The experiment in a line: Inhibition of human ALK6 at 10 uM using casein as substrate in presence of 200 uM ATP by radiometric kinase assay relative to control. Conditions: probe casein.
Chain of ALK6 (bone morphogenetic protein receptor type-1B) (O00238 whole entry): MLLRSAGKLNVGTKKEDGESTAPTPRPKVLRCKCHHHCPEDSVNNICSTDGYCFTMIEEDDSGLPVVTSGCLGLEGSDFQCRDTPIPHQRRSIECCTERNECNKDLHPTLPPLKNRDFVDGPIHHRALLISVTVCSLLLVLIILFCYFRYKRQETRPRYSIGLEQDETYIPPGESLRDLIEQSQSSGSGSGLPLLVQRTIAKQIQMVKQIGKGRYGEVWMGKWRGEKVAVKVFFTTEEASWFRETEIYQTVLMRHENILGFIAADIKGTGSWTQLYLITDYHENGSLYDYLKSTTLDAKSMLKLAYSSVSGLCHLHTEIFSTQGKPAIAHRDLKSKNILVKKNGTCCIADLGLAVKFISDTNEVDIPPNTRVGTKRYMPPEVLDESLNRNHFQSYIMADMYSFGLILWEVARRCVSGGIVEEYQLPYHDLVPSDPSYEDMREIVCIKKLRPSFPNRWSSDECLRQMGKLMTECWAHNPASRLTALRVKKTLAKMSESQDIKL
The target of data set [13] is Receptor-type tyrosine-protein kinase FLT3 (Homo sapiens) (UniProt P36888). The note with it: 1 uM.
Data set [14] concerns the target T3, Activin receptor type-1-like (Mus musculus). As to the kind of experiment: Inhibition of BMP9-stimulated ALK1 in mouse C2C12 cells assessed as reduction in Smad1/5 phosphorylation at 0.1 to 1 uM pretreated for 2 hrs followed by BMP9-stimulation after 30 mins by western blot analysis. In kind it is cell-based.
In data set [15] the target is T4, Activin receptor type-1-like (Homo sapiens, UniProt P37023). The experiment in a line: Inhibition of human ALK1 using casein as substrate in presence of 10 uM ATP by radiometric kinase assay.
T4 sequence (P37023 whole entry): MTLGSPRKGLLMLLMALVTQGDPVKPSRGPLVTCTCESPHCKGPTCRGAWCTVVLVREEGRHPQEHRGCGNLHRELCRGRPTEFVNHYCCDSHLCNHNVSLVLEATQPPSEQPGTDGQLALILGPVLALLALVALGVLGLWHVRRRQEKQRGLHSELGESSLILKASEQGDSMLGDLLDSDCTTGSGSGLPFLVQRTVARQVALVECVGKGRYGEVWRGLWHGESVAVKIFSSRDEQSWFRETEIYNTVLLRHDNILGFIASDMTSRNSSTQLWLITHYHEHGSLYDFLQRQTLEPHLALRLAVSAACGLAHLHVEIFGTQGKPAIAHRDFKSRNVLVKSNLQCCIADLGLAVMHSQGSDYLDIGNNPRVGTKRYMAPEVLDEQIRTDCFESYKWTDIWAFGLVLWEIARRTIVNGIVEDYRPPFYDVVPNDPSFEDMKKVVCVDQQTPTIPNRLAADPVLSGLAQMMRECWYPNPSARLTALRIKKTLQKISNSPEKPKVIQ
Data set [16] concerns the target ALK4 (activin receptor type-1B) (Homo sapiens, UniProt P36896). As to the kind of experiment: Inhibition of human ALK4 at 10 uM using casein as substrate in presence of 200 uM ATP by radiometric kinase assay relative to control. The note with it: human ALK4 kinase (activin receptor type-1B), probe casein.
The target in data set [17] is T3, Activin receptor type-1-like (Mus musculus). As to the kind of experiment: Inhibition of BMP9-stimulated ALK1 in mouse C2C12 cells assessed as decrease in MEK phosphorylation at 0.1 to 10 uM pretreated for 2 hrs followed by BMP9-stimulation after 30 mins by western blot analysis. The format is cell-based.
Data set [18] concerns the target T1, TGF-beta receptor type-1. As to the kind of experiment: Inhibition of ALK5 in mouse C2C12 cells assessed as decrease in TGFbeta1-induced Smad1/5 phosphorylation at 10 uM by Western blot method. In kind it is cell-based.
Data set [19] concerns the target Dual specificity mitogen-activated protein kinase kinase 6 (Homo sapiens, UniProt P52564). As to the kind of experiment: Inhibition of human MKK6 using p38a as substrate in presence of [gamma-33P]-ATP by scintillation counting method.
In data set [20] the test system is HUVEC. As to the kind of experiment: Angiogenic activity in HUVEC assessed as increase in angiogenic sprouting at 2 to 50 uM by microfluidic chip based 3D angiogenesis assay. The format is functional, cell-based. Conditions: Homo sapiens.
In data set [21] the target is T4, Activin receptor type-1-like. As to the kind of experiment: Inhibition of human ALK1 using casein as substrate in presence of [gamma-33P]-ATP by scintillation counting method.

Activity calls are given as the source filed them. No cut-off for these calls is given here. A value given as a limit tells only on which side of the number the result lay.

T2 sequence (P35916 whole entry): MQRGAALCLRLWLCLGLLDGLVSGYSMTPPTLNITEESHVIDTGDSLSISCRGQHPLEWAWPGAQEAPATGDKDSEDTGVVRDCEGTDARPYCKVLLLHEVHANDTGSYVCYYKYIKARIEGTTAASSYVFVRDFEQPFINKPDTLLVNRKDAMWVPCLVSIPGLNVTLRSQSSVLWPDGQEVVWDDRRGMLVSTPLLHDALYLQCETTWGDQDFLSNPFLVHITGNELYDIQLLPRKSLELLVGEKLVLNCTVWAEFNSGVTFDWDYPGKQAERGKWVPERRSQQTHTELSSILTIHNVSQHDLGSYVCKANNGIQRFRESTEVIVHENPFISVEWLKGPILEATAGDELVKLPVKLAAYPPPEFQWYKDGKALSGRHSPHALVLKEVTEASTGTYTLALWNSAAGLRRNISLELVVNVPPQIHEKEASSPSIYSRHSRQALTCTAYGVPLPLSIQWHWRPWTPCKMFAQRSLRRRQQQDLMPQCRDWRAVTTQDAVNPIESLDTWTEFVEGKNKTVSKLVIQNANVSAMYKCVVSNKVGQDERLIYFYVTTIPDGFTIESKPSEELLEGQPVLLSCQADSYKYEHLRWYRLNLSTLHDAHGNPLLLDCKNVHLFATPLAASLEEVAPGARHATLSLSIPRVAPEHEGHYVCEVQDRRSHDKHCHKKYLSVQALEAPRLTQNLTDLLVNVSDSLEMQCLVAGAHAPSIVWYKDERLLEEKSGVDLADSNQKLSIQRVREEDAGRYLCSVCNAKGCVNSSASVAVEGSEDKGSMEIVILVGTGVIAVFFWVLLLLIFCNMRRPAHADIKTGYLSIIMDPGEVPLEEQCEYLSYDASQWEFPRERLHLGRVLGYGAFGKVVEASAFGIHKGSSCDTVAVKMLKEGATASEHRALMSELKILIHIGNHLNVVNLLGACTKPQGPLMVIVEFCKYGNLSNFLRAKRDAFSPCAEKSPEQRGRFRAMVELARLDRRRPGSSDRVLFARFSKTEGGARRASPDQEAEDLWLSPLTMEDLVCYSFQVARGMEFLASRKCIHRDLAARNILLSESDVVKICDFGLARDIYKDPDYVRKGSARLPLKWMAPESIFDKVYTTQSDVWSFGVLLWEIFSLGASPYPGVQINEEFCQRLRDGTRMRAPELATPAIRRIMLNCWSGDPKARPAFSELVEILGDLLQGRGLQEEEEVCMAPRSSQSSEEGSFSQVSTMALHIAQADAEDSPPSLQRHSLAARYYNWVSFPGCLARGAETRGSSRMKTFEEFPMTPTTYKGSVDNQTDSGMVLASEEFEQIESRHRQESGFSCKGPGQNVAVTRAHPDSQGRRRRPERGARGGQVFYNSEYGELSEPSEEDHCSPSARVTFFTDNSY
Chain of Bone morphogenetic protein receptor type-1B (O00238 whole entry): as the sequence (O00238 whole entry) above
Chain of TGF-beta receptor type-1 (Homo sapiens, UniProt P36897) (P36897 whole entry): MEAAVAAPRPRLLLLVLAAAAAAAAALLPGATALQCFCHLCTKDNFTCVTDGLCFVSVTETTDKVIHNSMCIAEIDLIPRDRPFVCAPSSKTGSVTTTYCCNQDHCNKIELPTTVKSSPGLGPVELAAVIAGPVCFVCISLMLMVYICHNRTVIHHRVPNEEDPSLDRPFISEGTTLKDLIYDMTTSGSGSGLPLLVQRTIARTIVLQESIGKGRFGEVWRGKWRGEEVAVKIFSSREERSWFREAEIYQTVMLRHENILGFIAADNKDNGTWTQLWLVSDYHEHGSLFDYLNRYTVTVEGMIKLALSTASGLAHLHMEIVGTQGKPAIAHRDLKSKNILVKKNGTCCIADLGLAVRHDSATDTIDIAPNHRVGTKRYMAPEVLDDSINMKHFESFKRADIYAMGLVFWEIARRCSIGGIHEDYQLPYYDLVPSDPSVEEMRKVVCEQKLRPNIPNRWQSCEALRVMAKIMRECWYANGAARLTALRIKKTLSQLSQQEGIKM
Chain of Vascular endothelial growth factor receptor 2 (P35968 whole entry): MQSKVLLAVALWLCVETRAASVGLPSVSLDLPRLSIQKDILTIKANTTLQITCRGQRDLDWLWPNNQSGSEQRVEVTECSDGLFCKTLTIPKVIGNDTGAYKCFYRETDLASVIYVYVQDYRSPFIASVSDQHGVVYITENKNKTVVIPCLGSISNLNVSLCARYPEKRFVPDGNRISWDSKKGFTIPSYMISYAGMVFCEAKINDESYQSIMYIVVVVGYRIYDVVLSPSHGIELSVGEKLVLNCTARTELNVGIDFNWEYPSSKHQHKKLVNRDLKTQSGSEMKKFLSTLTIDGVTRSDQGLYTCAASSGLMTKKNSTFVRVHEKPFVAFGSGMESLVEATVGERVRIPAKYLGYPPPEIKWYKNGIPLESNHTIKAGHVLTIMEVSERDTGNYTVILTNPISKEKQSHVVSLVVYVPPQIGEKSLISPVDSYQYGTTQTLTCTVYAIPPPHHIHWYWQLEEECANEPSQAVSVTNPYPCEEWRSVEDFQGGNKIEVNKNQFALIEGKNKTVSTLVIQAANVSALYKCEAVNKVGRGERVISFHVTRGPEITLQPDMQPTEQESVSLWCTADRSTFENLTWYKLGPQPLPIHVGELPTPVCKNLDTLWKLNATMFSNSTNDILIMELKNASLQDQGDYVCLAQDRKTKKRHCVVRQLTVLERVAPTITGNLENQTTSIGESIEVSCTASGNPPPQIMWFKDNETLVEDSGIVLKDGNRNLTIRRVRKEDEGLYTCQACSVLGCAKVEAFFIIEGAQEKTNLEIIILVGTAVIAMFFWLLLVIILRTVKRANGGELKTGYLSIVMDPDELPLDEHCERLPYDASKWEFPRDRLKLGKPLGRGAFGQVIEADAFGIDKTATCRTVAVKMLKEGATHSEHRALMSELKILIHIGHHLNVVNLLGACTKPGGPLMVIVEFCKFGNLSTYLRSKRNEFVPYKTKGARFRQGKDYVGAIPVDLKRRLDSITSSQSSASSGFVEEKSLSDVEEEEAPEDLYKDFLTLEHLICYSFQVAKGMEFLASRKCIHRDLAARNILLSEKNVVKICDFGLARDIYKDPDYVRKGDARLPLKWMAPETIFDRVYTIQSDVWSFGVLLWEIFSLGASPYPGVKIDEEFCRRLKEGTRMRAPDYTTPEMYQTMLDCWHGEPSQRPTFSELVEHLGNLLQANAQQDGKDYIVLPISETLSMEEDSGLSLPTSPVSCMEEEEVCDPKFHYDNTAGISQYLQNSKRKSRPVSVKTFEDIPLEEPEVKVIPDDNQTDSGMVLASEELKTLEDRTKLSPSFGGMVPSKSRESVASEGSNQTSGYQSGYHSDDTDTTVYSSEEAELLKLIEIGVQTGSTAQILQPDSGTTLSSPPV

With `COc1cc(O)c2c(c1)CCC[C@H](O)[C@H](O)C(=O)CCC[C@H](C)OC2=O`, the result in the data set on HUVEC [1] and with HUVEC [20] was Active. The inhibition in data set [2] was > 80%; in data set [4], > 80%; in data set [7], 100%; in [13], > 80%. Besides, the “inhibition (INH)” value at TGF-beta receptor type-1 [3] was “Not Active”; on TGF-beta receptor type-1 [18], “Active”. In addition, the Activity result was “Non-Toxic” in the data set with MDA-MB-231 and “Dose-dependent effect” in the data set on HUVEC [6]. Besides, the inhibition result in data set [5], in data set [9] and in data set [14] was “Active” throughout. Moreover, the IC50 in data set [8] is 0.727 µM; at Activin receptor type-1 it was 3.35 µM; on TGF-beta receptor type-1 [10], 7.21 µM; in [11], 0.114 µM; in data set [15], 0.062 µM; in data set [19] it was > 10 µM. For the same compound, the IC50 in data set [21] was 0.062 µM. The inhibition at 10 µM in data set [12] and in [16] was < 40% each time. The inhibition entry in data set [17] is “inactive”.

The values are drawn from ChEMBL document CHEMBL3997792, “Identification of the First Selective Activin Receptor-Like Kinase 1 Inhibitor, a Reversible Version of L-783277” (J Med Chem, 2017).
